# Tests used:
# [1] = biological target: T1, cloned human or rodent CNS receptors, channels, and transporters (PDSP panel) (Homo sapiens, UniProt P08172); assay: PDSP GPCR panel primary binding assays at 10 μM; conditions: M2, primary assay
# T1 construct: expressed in transfected cells
# T1 sequence (P08172 1-466): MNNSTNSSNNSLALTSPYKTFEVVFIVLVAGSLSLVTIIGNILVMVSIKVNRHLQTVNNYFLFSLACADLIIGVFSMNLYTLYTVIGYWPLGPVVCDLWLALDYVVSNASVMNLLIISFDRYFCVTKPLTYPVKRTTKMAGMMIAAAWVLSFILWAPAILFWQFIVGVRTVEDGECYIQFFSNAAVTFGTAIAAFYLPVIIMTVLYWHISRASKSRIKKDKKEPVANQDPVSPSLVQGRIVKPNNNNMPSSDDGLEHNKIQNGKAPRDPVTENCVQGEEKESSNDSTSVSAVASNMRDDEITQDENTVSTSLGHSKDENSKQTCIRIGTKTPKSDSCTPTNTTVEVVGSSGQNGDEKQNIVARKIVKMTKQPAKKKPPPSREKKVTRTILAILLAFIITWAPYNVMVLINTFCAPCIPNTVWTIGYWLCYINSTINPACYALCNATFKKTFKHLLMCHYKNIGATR
# Method: (§1) GPCR panel: Screening against the receptors within the PDSP panel offers an assessment of off-target pharmacological activity at cloned human or rodent CNS receptors, channels, and transporters that could confound CNS-related phenotypes. A total of 46–47 primary binding assays were run in quadruplicate on these compounds at 10 μM, with follow-up secondary binding assays in 11-point dose-response in triplicate for select compounds versus select receptors. Secondary binding assays were executed for all receptors where test compound displaced an average of >50% of radio-labeled standard ligand. As an exception, no secondary assays were carried out for H3, PBR, or GABAA. […]
# [2] = biological target: T2, cloned human or rodent CNS receptors, channels, and transporters (PDSP panel) (Homo sapiens, UniProt P08912); assay: PDSP GPCR panel primary binding assays at 10 μM; conditions: Receptor M5, primary assay, 10 μM
# T2 construct: expressed in transfected cells
# T2 sequence (P08912 1-532): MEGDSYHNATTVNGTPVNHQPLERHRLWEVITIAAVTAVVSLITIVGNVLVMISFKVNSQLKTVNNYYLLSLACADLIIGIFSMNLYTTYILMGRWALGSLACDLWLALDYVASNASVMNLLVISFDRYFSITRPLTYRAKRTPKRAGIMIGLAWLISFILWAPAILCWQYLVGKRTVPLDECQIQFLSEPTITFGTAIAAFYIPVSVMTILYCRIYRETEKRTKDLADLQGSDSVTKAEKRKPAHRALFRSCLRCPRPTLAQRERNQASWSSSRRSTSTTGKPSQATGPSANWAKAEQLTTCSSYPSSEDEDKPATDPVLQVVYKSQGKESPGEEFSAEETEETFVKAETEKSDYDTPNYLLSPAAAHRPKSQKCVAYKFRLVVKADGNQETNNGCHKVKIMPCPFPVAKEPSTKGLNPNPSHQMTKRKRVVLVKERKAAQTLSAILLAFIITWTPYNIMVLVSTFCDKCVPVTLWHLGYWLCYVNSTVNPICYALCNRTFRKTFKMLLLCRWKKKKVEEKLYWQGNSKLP
# Method: as §1
# [3] = biological target: T3, cloned human or rodent CNS receptors, channels, and transporters (PDSP panel) (Homo sapiens, UniProt P21918); assay: PDSP GPCR panel primary binding assays at 10 μM; conditions: Receptor D5, primary assay, 10 μM
# T3 construct: expressed in transfected cells
# Method: as §1
# [4] = biological target: T4, cloned human or rodent CNS receptors, channels, and transporters (PDSP panel) (Homo sapiens, UniProt P25021); assay: PDSP GPCR panel primary binding assays at 10 μM; conditions: H2, primary assay
# T4 construct: expressed in transfected cells
# Method: as §1
# [5] = biological target: T5, cloned human or rodent CNS receptors, channels, and transporters (PDSP panel) (Homo sapiens, UniProt P35372); assay: PDSP GPCR panel primary binding assays at 10 μM; conditions: Receptor MOR, primary assay, 10 μM
# T5 construct: expressed in transfected cells
# Method: as §1
# [6] = biological target: T6, cloned human or rodent CNS receptors, channels, and transporters (PDSP panel) (Homo sapiens, UniProt P41145); assay: PDSP GPCR panel primary binding assays at 10 μM; conditions: Receptor KOR, primary assay, 10 μM
# T6 construct: expressed in transfected cells
# Method: as §1
# [7] = biological target: T7, cloned human or rodent CNS receptors, channels, and transporters (PDSP panel) (Homo sapiens, UniProt P41595); assay: PDSP GPCR panel primary binding assays at 10 μM; conditions: Receptor 5-HT2B, primary assay, 10 μM
# T7 construct: expressed in transfected cells
# Method: as §1
# [8] = biological target: T8, cloned human or rodent CNS receptors, channels, and transporters (PDSP panel) (Homo sapiens, UniProt P46098); assay: PDSP GPCR panel primary binding assays at 10 μM; conditions: Receptor 5-HT3, primary assay, 10 μM
# T8 construct: expressed in transfected cells
# T8 sequence (P46098 24-478): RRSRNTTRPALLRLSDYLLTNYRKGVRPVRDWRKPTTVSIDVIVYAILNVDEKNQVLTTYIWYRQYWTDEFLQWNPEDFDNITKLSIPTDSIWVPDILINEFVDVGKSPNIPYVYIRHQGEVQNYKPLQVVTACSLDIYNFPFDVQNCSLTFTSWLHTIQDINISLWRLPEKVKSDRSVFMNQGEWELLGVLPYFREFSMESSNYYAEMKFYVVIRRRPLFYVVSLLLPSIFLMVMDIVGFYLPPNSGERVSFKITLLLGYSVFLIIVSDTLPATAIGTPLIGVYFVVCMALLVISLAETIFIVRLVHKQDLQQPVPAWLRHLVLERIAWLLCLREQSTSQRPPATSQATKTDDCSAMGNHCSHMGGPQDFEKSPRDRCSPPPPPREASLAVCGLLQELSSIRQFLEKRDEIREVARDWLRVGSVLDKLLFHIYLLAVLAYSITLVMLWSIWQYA
# Method: as §1
# [9] = tested on: cellular system; design: method as in column References for potency and dosing (the 5th table c13); conditions: published data; References for potency and dosing; cited from earlier work
# [10] = cited from earlier work
# T7 sequence (P41595 whole entry): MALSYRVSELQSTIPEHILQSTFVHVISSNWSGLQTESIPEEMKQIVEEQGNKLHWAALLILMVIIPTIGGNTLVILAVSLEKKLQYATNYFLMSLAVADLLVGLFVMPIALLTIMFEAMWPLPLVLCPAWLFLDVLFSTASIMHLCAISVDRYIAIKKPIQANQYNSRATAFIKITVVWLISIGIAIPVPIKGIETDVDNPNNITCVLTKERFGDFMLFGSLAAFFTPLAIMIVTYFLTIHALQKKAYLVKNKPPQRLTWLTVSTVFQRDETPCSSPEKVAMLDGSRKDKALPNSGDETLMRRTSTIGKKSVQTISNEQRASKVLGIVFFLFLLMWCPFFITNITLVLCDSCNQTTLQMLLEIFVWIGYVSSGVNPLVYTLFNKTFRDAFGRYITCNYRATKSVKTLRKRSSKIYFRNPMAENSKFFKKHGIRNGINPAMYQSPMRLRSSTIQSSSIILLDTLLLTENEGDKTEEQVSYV
# T5 sequence (P35372 whole entry): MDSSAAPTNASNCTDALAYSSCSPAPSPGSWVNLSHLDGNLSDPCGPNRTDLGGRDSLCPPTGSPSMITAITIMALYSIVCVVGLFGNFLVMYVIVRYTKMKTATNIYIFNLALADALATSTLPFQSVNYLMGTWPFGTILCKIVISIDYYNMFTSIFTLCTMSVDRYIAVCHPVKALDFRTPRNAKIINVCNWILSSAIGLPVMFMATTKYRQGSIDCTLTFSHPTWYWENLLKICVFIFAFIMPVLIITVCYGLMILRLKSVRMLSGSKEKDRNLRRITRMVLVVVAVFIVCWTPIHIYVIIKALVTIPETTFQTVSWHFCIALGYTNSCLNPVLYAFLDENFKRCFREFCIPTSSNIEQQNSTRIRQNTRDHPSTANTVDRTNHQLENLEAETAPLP
# T6 sequence (P41145 whole entry): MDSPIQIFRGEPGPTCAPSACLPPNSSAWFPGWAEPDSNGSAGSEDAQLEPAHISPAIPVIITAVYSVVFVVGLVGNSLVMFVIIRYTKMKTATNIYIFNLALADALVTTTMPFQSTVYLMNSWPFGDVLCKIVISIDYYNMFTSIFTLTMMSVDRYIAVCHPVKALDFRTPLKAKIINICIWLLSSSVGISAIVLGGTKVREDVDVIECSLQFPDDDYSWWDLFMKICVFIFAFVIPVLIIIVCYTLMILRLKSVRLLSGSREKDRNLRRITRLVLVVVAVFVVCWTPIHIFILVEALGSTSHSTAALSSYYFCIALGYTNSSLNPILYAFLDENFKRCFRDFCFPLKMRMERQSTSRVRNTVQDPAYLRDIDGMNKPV
# T4 sequence (P25021 whole entry): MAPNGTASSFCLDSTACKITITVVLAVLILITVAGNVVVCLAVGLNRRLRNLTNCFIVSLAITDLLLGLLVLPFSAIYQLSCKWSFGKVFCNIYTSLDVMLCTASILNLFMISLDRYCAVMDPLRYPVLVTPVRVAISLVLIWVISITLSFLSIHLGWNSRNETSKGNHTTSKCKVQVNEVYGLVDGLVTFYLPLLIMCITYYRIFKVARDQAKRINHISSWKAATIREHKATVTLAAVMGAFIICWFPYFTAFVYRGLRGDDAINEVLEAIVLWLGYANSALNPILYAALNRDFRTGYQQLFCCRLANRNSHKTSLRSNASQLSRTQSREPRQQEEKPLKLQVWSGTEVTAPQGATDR
# T3 sequence (P21918 whole entry): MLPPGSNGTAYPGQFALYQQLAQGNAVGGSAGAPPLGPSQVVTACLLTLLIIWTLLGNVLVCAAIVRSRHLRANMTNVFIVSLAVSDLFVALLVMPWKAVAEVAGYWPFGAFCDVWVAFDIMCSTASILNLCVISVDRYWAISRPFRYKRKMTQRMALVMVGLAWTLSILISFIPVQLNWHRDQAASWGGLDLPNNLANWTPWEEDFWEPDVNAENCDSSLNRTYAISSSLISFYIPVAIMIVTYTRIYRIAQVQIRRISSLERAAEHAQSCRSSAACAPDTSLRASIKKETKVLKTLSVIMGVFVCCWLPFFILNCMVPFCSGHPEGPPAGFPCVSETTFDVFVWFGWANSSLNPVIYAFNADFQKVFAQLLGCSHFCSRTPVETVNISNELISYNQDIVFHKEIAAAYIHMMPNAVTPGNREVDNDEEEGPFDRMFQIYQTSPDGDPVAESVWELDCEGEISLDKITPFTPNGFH
structure (smiles),measurement,setting,value
"O=c1oc2ccccc2cc1-c1cn2cc(Cc3ccc(F)cc3)sc2n1 [UNC10302680A, iMDK]",Mean %,[1]; mean inhibition,-8.2%
same,Inhibition 1,[1]; replicate 1,-12.5%
same,Inhibition 2,[1]; replicate 2,-5.38%
same,Inhibition 3,[1]; replicate 3,-3.9%
same,Inhibition 4,[1]; replicate 4,-11.03%
same,Inhibition 1,[2],-0.74%
same,Inhibition 2,[2],-17.55%
same,Inhibition 3,[2],-6.68%
same,Inhibition 4,[2],-10.7%
same,Mean %,[2]; mean of Inhibition 1-4,-8.92%
same,Inhibition 1,[3],22.41%
same,Inhibition 2,[3],16.72%
same,Inhibition 3,[3],-1.22%
same,Inhibition 4,[3],7.82%
same,Mean %,[3]; mean of Inhibition 1-4,11.43%
same,Mean %,[4]; mean inhibition,13.61%
same,Inhibition 1,[4]; replicate 1,32.28%
same,Inhibition 2,[4]; replicate 2,15.29%
same,Inhibition 3,[4]; replicate 3,9.61%
same,Inhibition 4,[4]; replicate 4,-2.74%
same,Inhibition 1,[5],9.07%
same,Inhibition 2,[5],9.93%
same,Inhibition 3,[5],2.65%
same,Inhibition 4,[5],1.88%
same,Mean %,[5]; mean of Inhibition 1-4,5.88%
same,Inhibition 1,[6],-23.4%
same,Inhibition 2,[6],-19.7%
same,Inhibition 3,[6],-5.6%
same,Inhibition 4,[6],-21.38%
same,Mean %,[6]; mean of Inhibition 1-4,-17.52%
same,Inhibition 1,[7],9.18%
same,Inhibition 2,[7],-38.65%
same,Inhibition 3,[7],-23.13%
same,Inhibition 4,[7],-31.52%
same,Mean %,[7]; mean of Inhibition 1-4,-21.03%
same,Inhibition 1,[8],1.94%
same,Inhibition 2,[8],26.27%
same,Inhibition 3,[8],17.25%
same,Inhibition 4,[8],14.61%
same,Mean %,[8]; mean of Inhibition 1-4,15.02%
same,Reported as cell active (<10 μM),[9],Y (Published data supports that the compound is active in a cellular system when dosed at 10 μM (Y/N))
same,Kinetic solubility,"[10]; aqueous, neutral pH (7.4)",<1.1 µM
same,Kinetic solubility (in words),[10]; kinetic solubility experiments,poor kinetic solubility

# Reference: PMC9005681, “Use of AD Informer Set compounds to explore validity of novel targets in Alzheimer's disease pathology” (Alzheimer's & Dementia : Translational Research & Clinical …, 2022)
